Results on 27 compounds are retold here after BindingDB's records for doi:10.1021/acsmedchemlett.6b00390 (Yale University, 2016).

For orientation: EC50 means the concentration giving half of the maximal effect.

Experiment [1] is described as follows: Inhibition of HIV1 reverse transcriptase Y181C mutant infected in human MT2 cells assessed as protection against viral infection by MTT assay. In general terms: Tetrazolium assays rely on reduction of a dye to a coloured formazan, in cell work by metabolically active cells.
A short description of experiment [2]: Inhibition of HIV1 reverse transcriptase K103N/Y181C double mutant infected in human MT2 cells assessed as protection against viral infection by MTT assay.

On to `Cc1c(Oc2ccccc2OCCn2ccc(=O)[nH]c2=O)cc(Cl)c2ccc(C#N)cc12`, for which the EC50 in experiment [1] was 58 nM. Consider `N#Cc1ccc2c(Cl)cc(Oc3ccccc3OCCn3ccc(=O)[nH]c3=O)cc2c1`, for which the EC50 in experiment [2] and in experiment [1] was 890 nM throughout.

In the case of `N#Cc1ccc2ccc(Oc3ccccc3OCCn3ccc(=O)[nH]c3=O)cc2c1`, the values for the EC50 in experiment [2] and in experiment [1] were 4000 nM and 2600 nM, respectively. As to `CCCc1cc(Oc2ccccc2OCCn2ccc(=O)[nH]c2=O)c(C)c2cc(C#N)ccc12`, the EC50 in experiment [2] was determined as 990 nM; in experiment [1], 630 nM. `Cc1c(Oc2ccc(F)cc2OCCn2ccc(=O)[nH]c2=O)cc(F)c2ccc(C#N)cc12`: the EC50 worked out at 980 nM in experiment [2] and 31 nM in experiment [1]. In the same order, the values of `Cc1c(Oc2ccc(F)cc2OCCn2ccc(=O)[nH]c2=O)cc(Cl)c2ccc(C#N)cc12` are 500 nM and 27 nM.

Take `N#Cc1ccc2cc(Oc3ccccc3OCCn3ccc(=O)[nH]c3=O)ccc2c1`: the EC50 is 5600 nM in experiment [2] and > 100 nM in experiment [1]. For the compound `N#Cc1cc2c(Oc3ccc(F)cc3OCCn3ccc(=O)[nH]c3=O)cc(F)cn2c1`, the results for the EC50 in experiment [2] and in experiment [1] were 10 nM and 250 nM, respectively. For the compound `Cc1cc2ccc(C#N)cc2c(C)c1Oc1ccccc1OCCn1ccc(=O)[nH]c1=O`, the EC50 in experiment [2] is 1700 nM; in experiment [1], > 100 nM.

For `Cc1c(Oc2ccccc2OCCn2ccc(=O)[nH]c2=O)c(C)c2cc(C#N)ccc2c1C`, the EC50 in experiment [2] is 790 nM. `N#Cc1ccc2c(Cl)cc(Oc3ccc(F)cc3OCCn3ccc(=O)[nH]c3=O)cc2c1`: the EC50 in experiment [2] is 4100 nM; in experiment [1], 1100 nM. With `Cc1cc(Oc2ccc(F)cc2OCCn2ccc(=O)[nH]c2=O)c(F)c2cc(C#N)ccc12`, the EC50 in experiment [2] came out at 3800 nM; in experiment [1], 1200 nM. Take `Cc1cc(Oc2ccc(F)cc2OCCn2ccc(=O)[nH]c2=O)c(C)c2cc(C#N)ccc12`: the EC50 is 410 nM in experiment [2] and 28 nM in experiment [1]. Regarding `Cc1c(Oc2ccc(Cl)cc2OCCn2ccc(=O)[nH]c2=O)cc(F)c2ccc(C#N)cc12`, the EC50 in experiment [2] was > 100 nM; in experiment [1] it was 330 nM. Consider `N#Cc1ccc2c(F)cc(Oc3ccc(F)cc3OCCn3ccc(=O)[nH]c3=O)c(Cl)c2c1`, for which the values for the half-maximal effective concentration (EC50) in experiment [2] and in experiment [1] were 1600 nM and 72 nM, respectively.

With `CCOc1cc(Oc2ccccc2OCCn2ccc(=O)[nH]c2=O)c(C)c2cc(C#N)ccc12`, the 50% effective concentration (EC50) is 800 nM in experiment [2] and 200 nM in experiment [1].

With `Cc1c(Oc2ccccc2OCCn2ccc(=O)[nH]c2=O)cc(C(C)C)c2ccc(C#N)cc12`, the results for the EC50 in experiment [2] and in experiment [1] were 100 nM and 400 nM, respectively.

With `Cc1c(Oc2ccccc2OCCn2ccc(=O)[nH]c2=O)cc(CC2CC2)c2ccc(C#N)cc12`, the EC50 came to 1200 nM in experiment [2] and 900 nM in experiment [1]. Regarding `COc1cc(Oc2ccccc2OCCn2ccc(=O)[nH]c2=O)c(C)c2cc(C#N)ccc12`, the EC50 in experiment [2] is 1600 nM; in experiment [1] it was 670 nM.

In the case of `COCc1cc(Oc2ccccc2OCCn2ccc(=O)[nH]c2=O)c(C)c2cc(C#N)ccc12`, the values for the EC50 in experiment [2] and in experiment [1] were 790 nM and 690 nM, respectively.

On to `Cc1cc(Oc2ccccc2OCCn2ccc(=O)[nH]c2=O)c(Cl)c2cc(C#N)ccc12`, for which the EC50 is 120 nM in experiment [2] and 42 nM in experiment [1]. In the same order, the values of `Cc1cc(Oc2ccccc2OCCn2ccc(=O)[nH]c2=O)c(C)c2cc(C#N)ccc12` are 150 nM and 62 nM.

On to `Cc1cc(Oc2ccccc2OCCn2ccc(=O)[nH]c2=O)cc2cc(C#N)ccc12`, for which the results for the EC50 in experiment [2] and in experiment [1] were 2900 nM and 800 nM, respectively. `CCc1cc(Oc2ccccc2OCCn2ccc(=O)[nH]c2=O)c(C)c2cc(C#N)ccc12`: the figures for the EC50 in experiment [2] and in experiment [1] were 300 nM and 150 nM, respectively. For `N#Cc1ccc2c(F)cc(Oc3ccccc3OCCn3ccc(=O)[nH]c3=O)c(Cl)c2c1`, the EC50 in experiment [2] turned out to be 310 nM; in experiment [1], 90 nM. In the case of `Cc1c(Oc2ccccc2OCCn2ccc(=O)[nH]c2=O)cc(F)c2ccc(C#N)cc12`, the EC50 in experiment [2] is 890 nM; in experiment [1], 60 nM.

`N#Cc1ccc2ccc(Oc3ccc(F)cc3OCCn3ccc(=O)[nH]c3=O)cc2c1`: the EC50 in experiment [2] came to 9400 nM; in experiment [1], 1200 nM.
